According to patent US12583825B2, “Benzo[h]quinazolin-4-amine and thieno[3,2-h]quinazolin-4-amine derivatives for the treatment of cancer” (Redona Therapeutics, Inc., priority 2020, dated 2026):

How the values were obtained:
MDA-MB-231 cells = test: MDA-MB-231 proliferation assay; format: cell-based; settings: Homo sapiens, 72 hours, YO-PRO-1 readout
Experimental: MDA-MB-231 Proliferation Assay
MDA-MB-231 cells were cultivated in DMEM High Glucose (4.5 g/L) with L-Glutamine (BioConcept, cat. no. 1-26F03-I) supplemented with 1% Na-pyruvate (Sigma, cat. no. S8636), 1% Penicillin-Streptomycin (BioConcept, cat. no. 4-01F00H), and 10% FBS (Sigma, cat. no. F9665) using standard techniques. Cells were seeded in black, clear-bottom 384 well plates for tissue culture (Greiner Bio-One, cat. no. 781091) at a density of 750 cells per well in 20 μL medium and the plates were incubated overnight at 37° C. with 5% CO2 prior to treatment. Experimental compounds were serially diluted in DMSO to 200× the desired final concentrations. The solutions were then diluted 1:40 with culture medium and 5 μL aliquots were mixed into the wells containing the cells. The final concentration of DMSO was 0.5%. The plates were incubated for 72 hours and cell numbers were then measured using YO-PRO™-1 Iodide (ThermoFisher Scientific, cat. no. Y3603) essentially as recommended by the manufacturer. […] The plates were incubated at room temperature in the dark for 30 minutes. Fluorescence intensity signals were then measured on a Synergy 4 reader (BioTek) using 485/20 nm and 530/25 nm filters for the excitation and emission, respectively. Relative proliferation values were calculated by normalizing the raw data using DMSO-treated cells (100% proliferation) and the signals obtained from cells that were evaluated at the time of compound addition (0% proliferation). The concentration-response data were fitted to a sigmoidal 4-parameter logistic model with the maximum constrained to 100%.

recombinant human CLK3 = target: T1, recombinant human CLK3 (Homo sapiens, UniProt P49761); test: CLK3 kinase assay (LANCE Ultra); format: biochemical; settings: 0.5 nM CLK3, 300 μM ATP, 3 hours at 30° C.
T1 construct: purchased Thermo Fisher Scientific PV3826
T1 sequence (P49761 whole entry): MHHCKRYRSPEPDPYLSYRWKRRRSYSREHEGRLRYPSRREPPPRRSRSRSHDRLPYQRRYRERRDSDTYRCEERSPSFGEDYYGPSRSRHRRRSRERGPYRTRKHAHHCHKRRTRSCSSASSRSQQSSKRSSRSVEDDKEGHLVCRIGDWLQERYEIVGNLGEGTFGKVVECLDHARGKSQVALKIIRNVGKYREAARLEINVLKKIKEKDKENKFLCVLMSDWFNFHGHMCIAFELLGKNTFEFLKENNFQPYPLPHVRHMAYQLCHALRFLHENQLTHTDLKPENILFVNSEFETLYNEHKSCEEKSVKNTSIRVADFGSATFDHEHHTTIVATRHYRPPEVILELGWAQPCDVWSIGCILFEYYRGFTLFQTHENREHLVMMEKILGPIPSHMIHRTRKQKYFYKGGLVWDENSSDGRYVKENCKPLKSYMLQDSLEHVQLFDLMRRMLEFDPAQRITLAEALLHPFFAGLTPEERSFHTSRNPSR
Experimental: CLK3 kinase activity was measured using the LANCE® Ultra technology (PerkinElmer) essentially as recommended by the supplier. Briefly, 2.5 μL of test sample at 4× the desired final concentration in 4% DMSO were dispensed into white, low volume, round bottom, 384 well plates (Corning, cat. no. 4512). 5 μL of a mixture containing recombinant human CLK3 (Thermo Fisher Scientific, cat. no. PV3826) and the labeled peptide substrate ULight™-CREBtide (PerkinElmer, cat. no. TRF0107) prepared in 1.33× kinase buffer (Thermo Fisher Scientific, cat. no. PV3189) were then added. Finally, the reactions were started by adding 2.5 μL of a 4× solution of ATP in kinase buffer. The plates were sealed with adhesive foils and incubated for 3 hours at 30° C. in the dark. The final concentrations of CLK3, ULight™—CREBtide, and ATP were 0.5 nM, 50 nM, and 300 μM, respectively. 5 μL of 40 mM EDTA were then added to terminate the reactions. The Eu-anti-phospho-CREB antibody (PerkinElmer, cat. no. TRF0200) diluted in LANCE® detection buffer (PerkinElmer, cat. no. CR97) was then added to a final concentration of 2 nM and the reactions were incubated for 1 hour at room temperature in the dark. The signals were measured using a Synergy 4 reader (BioTek) with a 320/80 nm filter for the excitation and 620/10 nm and 665/8 nm filters for the donor and acceptor emission, respectively. […] IC50 values were calculated by fitting the concentration-response data to a sigmoidal 4-parameter logistic model.

Row | Compound | GI50 (MDA-MB-231 cells) [nM] | IC50 (recombinant human CLK3) [nM]
1 | CC1(C)/C(=N/O)c2cc(O[C@H]3CC[C@H](N)CC3)ccc2-c2ncnc(N)c21 [Example 2, (6Z)-4-amino-8-(trans-4-aminocyclohexoxy)-5,5-dimethyl-benzo[h]quinazolin-6-one oxime] | 742 | 16.6
2 | CC1(C)/C(=N/OCc2ccccc2)c2cc(O[C@H]3CC[C@H](N)CC3)ccc2-c2ncnc(N)c21 [Example 3, (6Z)-8-(trans-4-aminocyclohexoxy)-6-benzyloxyimino-5,5-dimethyl-benzo[h]quinazolin-4-amine] | 1960 | 200
3 | COc1ccc2c(c1)/C(=N\OCC(=O)O)C(C)(C)c1c(N)ncnc1-2 [Example 5, 2-[(Z)-(4-amino-8-methoxy-5,5-dimethyl-benzo[h]quinazolin-6-ylidene)amino]oxyacetic acid] | – | 227
4 | COc1ccc2c(c1)/C(=N\OCC(N)=O)C(C)(C)c1c(N)ncnc1-2 [Example 7, 2-[(Z)-(4-amino-8-methoxy-5,5-dimethyl-benzo[h]quinazolin-6-ylidene)amino]oxyacetamide] | – | 115
5 | COc1ccc2c(c1)/C(=N\OCC(=O)NCCN)C(C)(C)c1c(N)ncnc1-2 [Example 8, N-(2-aminoethyl)-2-[(Z)-(4-amino-8-methoxy-5,5-dimethyl-benzo[h]quinazolin-6-ylidene)amino]oxy-acetamide] | > 2000 | 73.2
6 | COc1ccc2c(c1)/C(=N\O[C@H]1CC[C@@H](N)CC1)C(C)(C)c1c(N)ncnc1-2 [Example 9, (6Z)-6-(cis-4-aminocyclohexoxy)imino-8-methoxy-5,5-dimethyl-benzo[h]quinazolin-4-amine] | 1050 | 90.2
7 | COc1ccc2c(c1)/C(=N\O[C@H]1CC[C@H](N)CC1)C(C)(C)c1c(N)ncnc1-2 [Example 10, (6Z)-6-(trans-4-aminocyclohexoxy)imino-8-methoxy-5,5-dimethyl-benzo[h]quinazolin-4-amine] | > 2000 | 75.8
8 | COc1ccc2c(c1)/C(=N\OC[C@H]1CC[C@H](N)CC1)C(C)(C)c1c(N)ncnc1-2 [Example 11, (6Z)-6-[(trans-4-aminocyclohexyl)methoxyimino]-8-methoxy-5,5-dimethyl-benzo[h]quinazolin-4-amine] | – | 437
9 | COc1ccc2c(c1)/C(=N\OC[C@H]1CNC(=O)O1)C(C)(C)c1c(N)ncnc1-2 [Example 12, (5R)-5-[[(Z)-(4-amino-8-methoxy-5,5-dimethyl-benzo[h]quinazolin-6-ylidene)amino]oxymethyl]oxazolidin-2-one] | > 2000 | 129
10 | COC(=O)CCO/N=C1\c2cc(O[C@H]3CC[C@H](N)CC3)ccc2-c2ncnc(N)c2C1(C)C [Example 14, methyl 3-[(Z)-[4-amino-8-(trans-4-aminocyclohexoxy)-5,5-dimethyl-benzo[h]quinazolin-6-ylidene]amino]oxypropanoate] | 597 | 23.9
11 | CC1(C)/C(=N/OCCCO)c2cc(O[C@H]3CC[C@H](N)CC3)ccc2-c2ncnc(N)c21 [Example 15, 3-[(Z)-[4-amino-8-(trans-4-aminocyclohexoxy)-5,5-dimethyl-benzo[h]quinazolin-6-ylidene]amino]oxypropan-1-ol] | 714 | 29.8
12 | CO/N=C1\c2cc(N(C)C3CCNCC3)ccc2-c2ncnc(N)c2C1(C)C [Example 69, (6Z)-6-methoxyimino-N8,5,5-trimethyl-N8-(4-piperidyl)benzo[h]quinazoline-4,8-diamine] | > 2000 | –

Next, values leading:

Row | GI50 (MDA-MB-231 cells) [nM] | IC50 (recombinant human CLK3) [nM] | Compound
13 | > 2000 | 265 | CC1(C)/C(=N/OCCN2CCCCC2)c2cc(O[C@H]3CC[C@H](N)CC3)ccc2-c2ncnc(N)c21 [Example 16, (6Z)-8-(trans-4-aminocyclohexoxy)-5,5-dimethyl-6-[2-(1-piperidyl)ethoxyimino]benzo[h]quinazolin-4-amine]
14 | – | 410 | CCN(CC)CCCO/N=C1\c2cc(O[C@H]3CC[C@H](N)CC3)ccc2-c2ncnc(N)c2C1(C)C [Example 17, (6Z)-8-(trans-4-aminocyclohexoxy)-6-[3-(diethylamino)propoxyimino]-5,5-dimethyl-benzo[h]quinazolin-4-amine]
15 | > 2000 | 237 | CC1(C)/C(=N/OCc2ccc(C#N)cc2)c2cc(O[C@H]3CC[C@H](N)CC3)ccc2-c2ncnc(N)c21 [Example 20, 4-[[(Z)-[4-amino-8-(trans-4-aminocyclohexoxy)-5,5-dimethyl-benzo[h]quinazolin-6-ylidene]amino]oxymethyl]benzonitrile]
16 | 743 | – | CCO/N=C1\c2cc(O[C@H]3CC[C@H](N)CC3)ccc2-c2ncnc(N)c2C1(C)C [Example 24, (6Z)-8-(trans-4-aminocyclohexoxy)-6-ethoxyimino-5,5-dimethyl-benzo[h]quinazolin-4-amine]
17 | > 2000 | – | CO/N=C1\c2cc(O[C@H]3CC[C@H](N)CC3)cc(Cl)c2-c2ncnc(N)c2C1(C)C [Example 39, (6Z)-8-(trans-4-aminocyclohexoxy)-10-chloro-6-methoxyimino-5,5-dimethyl-benzo[h]quinazolin-4-amine]
18 | > 2000 | – | CO/N=C1\c2cc(OC)c(N)cc2-c2ncnc(N)c2C1(C)C [Example 42, (6Z)-8-methoxy-6-methoxyimino-5,5-dimethyl-benzo[h]quinazoline-4,9-diamine]
19 | – | 1.9 | CO/N=C1\c2cc(O[C@H]3CC[C@@H](N)CC3)ccc2-c2ncnc(N)c2C1(C)C [Example 54, (6Z)-8-(cis-4-aminocyclohexoxy)-6-methoxyimino-5,5-dimethyl-benzo[h]quinazolin-4-amine]
20 | – | 372 | COc1ccc2c(c1)/C(=N\OC[C@@H]1CCNC1)C(C)(C)c1c(N)ncnc1-2 [Example 62, (6Z)-8-methoxy-5,5-dimethyl-6-[[(3R)-pyrrolidin-3-yl]methoxyimino]benzo[h]quinazolin-4-amine]
21 | – | 313 | COc1ccc2c(c1)/C(=N/OC[C@@H]1CCNC1)C(C)(C)c1c(N)ncnc1-2 [Example 63, (6E)-8-methoxy-5,5-dimethyl-6-[[(3R)-pyrrolidin-3-yl]methoxyimino]benzo[h]quinazolin-4-amine]
22 | > 2000 | – | C=CCO/N=C1\c2cc(O[C@H]3CC[C@H](N)CC3)ccc2-c2ncnc(N)c2C1(C)C [Example 64, (6Z)-6-allyloxyimino-8-(trans-4-aminocyclohexoxy)-5,5-dimethyl-benzo[h]quinazolin-4-amine]
23 | > 2000 | – | CC(C)O/N=C1\c2cc(O[C@H]3CC[C@H](N)CC3)ccc2-c2ncnc(N)c2C1(C)C [Example 67, (6Z)-8-(trans-4-aminocyclohexoxy)-6-isopropoxyimino-5,5-dimethyl-benzo[h]quinazolin-4-amine]
24 | – | 173 | COc1ccc2c(c1)/C(=N\OC[C@H]1CCN(C)C1)C(C)(C)c1c(N)ncnc1-2 [Example 71, (6Z)-8-methoxy-5,5-dimethyl-6-[[(3S)-1-methylpyrrolidin-3-yl]methoxyimino]benzo[h]quinazolin-4-amine]
25 | – | 98.6 | CO/N=C1\c2cc(Br)ccc2-c2ncnc(N)c2C1(C)C [Example 89, (6Z)-8-bromo-6-methoxyimino-5,5-dimethyl-benzo[h]quinazolin-4-amine]
26 | 82 | – | CC1(C)/C(=N/OCCOC(F)(F)F)c2cc(O[C@H]3CC[C@@H](N)CC3)ccc2-c2ncnc(N)c21 [Example 105, (6Z)-8-(cis-4-aminocyclohexoxy)-5,5-dimethyl-6-[2-(trifluoromethoxy)ethoxyimino]benzo[h]quinazoline-4-amine]
27 | 319 | – | CC1(C)/C(=N/OCCOc2ccccc2)c2cc(O[C@H]3CC[C@@H](N)CC3)ccc2-c2ncnc(N)c21 [Example 107, (6Z)-8-(cis-4-aminocyclohexoxy)-5,5-dimethyl-6-(2-phenoxyethoxyimino)benzo[h]quinazoline-4-amine]
28 | 942 | – | CC1(C)/C(=N/OCCCc2cccnc2)c2cc(O[C@H]3CC[C@@H](N)CC3)ccc2-c2ncnc(N)c21 [Example 108, (6Z)-8-(cis-4-aminocyclohexoxy)-5,5-dimethyl-6-[3-(3-pyridyl)propoxyimino]benzo[h]quinazoline-4-amine]
